# Source: PubChem BioAssay AID1963830 (Molecular Pharmacology Branch, DTP, NCI, 2024)
# System: 922993-354-T-J3-PDC complex spheroid viability
# Experiment: Anticancer human tumor 922993-354-T-J3-PDC patient-derived endometrial carcinoma cell line growth inhibition [POLQ]
# Details: for IC50: curve of first compound; for viability, T/C: stronger effect = lower value
# Description: Multicellular complex tumor spheroid response to Polymerase (POL) inhibitors (novobiocin, ART-558, RP6685) in combination with a variety of drugs and investigational agents in selected tumor cell lines
# The POL inhibitors (novobiocin, ART-558, and RP6685) were evaluated both individually and in combination with standard of care and investigational anticancer small molecules within a complex spheroid model of solid tumors. . Complex spheroids include a stromal component modeled by human endothelial cells (HUVEC) and fibroblasts modeled by human mesenchymal stem cells (MSCs). The concentration ranges selected for each drug and investigational agent were based upon clinically achievable concentrations if the clinical Cmax of the agent was known.
# Compounds. The drugs and investigational agents: novobiocin (NSC847541), ART-558 (NSC835418), RP-6685 (NSC848927), peposertib (NSC802822), ceralasertib (NSC780249), elimusertib (NSC800525), camonsertib (NSC841442), AZD-1390 (NSC803789), olaparib (NSC753686), talazoparib (NSC767125), rucaparib (NSC756644), sotorasib (NSC818433), MRTX-1133 (NSC836407), SN-38 (NSC673596), topotecan (NSC609699), epotoside (NSC141540), doxorubicin (NSC123127), gemcitabine (NSC613327), 5-fluorouracil (NSC19893), paclitaxel (NSC125973), vemurafenib (NSC761431), MSA-2 (NSC828583), SN-011 (NSC837082), adavosertib (NSC754352), prexasertib (NSC758257), carboplatin (NSC241240) and oxaliplatin (NSC266046), were obtained from the National Cancer Institute (NCI) Developmental Therapeutics Program Chemical Repository (21). The FDA-approved anticancer drug set is available from the Developmental Therapeutics Program at https://dtp.cancer.gov/organization/dscb/obtaining/. […] The stock solutions were prepared in dimethyl sulfoxide (DMSO, Sigma-Aldrich, St. Louis, MO, cat. D2650), except for the platinum compounds which were prepared in saline (Quality Biological, Gaithersburg, MD, cat. 114-055-101), at 800-fold the tested concentration and stored at -70 degrees C prior to their use. All drugs and investigational agents were tested over a range starting from a high concentration at or near the clinical Cmax and decreasing in half-log increments. If the clinical Cmax for an agent had not been determined, the highest concentration tested was 10 microM, except for SN-38, which was tested at a high concentration of 1 microM.
# Cell Culture. All cells were maintained in an incubator at 37 degrees C and 5% CO2 with 95% humidity. The PDC lines were cultured according to standard operating procedures established by the NCI PDMR (https://pdmr.cancer.gov). Table 3 of the manuscript, lists the cell lines along with the number of the three cell types plated to form the mct-spheroids and media for tumor cell growth. After thawing, all PDC lines, except 997537-175-T-J1-PDC and 415267-285-R-J2-PDC, were cultured in Matrigel-coated flasks prepared with a working solution of 1X Ham's F-12 nutrient mix, without supplementation (Thermo Fisher Scientific, cat. 11765054), 100 U/mL penicillin-streptomycin (Thermo Fisher Scientific, cat. 15140122), and 2.5% Matrigel (Corning Inc., Corning, NY, cat. 354248) for the first three passages. The two PDC lines 997537-175-T-J1-PDC and 415267-285-R-J2-PDC were cultured on uncoated flasks. The 857933-349-R-J2-PDC line was cultured in 6C/Colon 1B media containing advanced DMEM/F-12 (Thermo Fisher Scientific, cat. 12634028), 10 mM HEPES (Thermo Fisher Scientific, cat. 15630080), 1X GlutaMAX supplement (Thermo Fisher Scientific, cat. 35050061), 0.1 mg/mL primocin (InvivoGen, San Diego, CA, cat. ant-pm-2), 10% defined fetal bovine serum, heat inactivated (HyClone Laboratories Inc., Logan, UT, cat. SH30070.03HI), 50% L-WRN conditioned media (ATCC, cat. CRL-3276), 1.25 mM N-Acetyl-L-cysteine (Sigma-Aldrich, cat. A9165), 10 mM nicotinamide (Sigma-Aldrich, cat. N0636), 1X B-27 supplement (Thermo Fisher Scientific, cat. 17504044), 1X N-2 supplement (Thermo Fisher Scientific, cat. […]
# [1] = second compound 0.0316 µM, first compound 0.0316 µM
# [2] = second compound 0.0316 µM, first compound 0.1 µM
# [3] = second compound 0.0316 µM, first compound 0.316 µM
# [4] = second compound 0.0316 µM, first compound 1 µM
# [5] = second compound 0.1 µM, first compound 0.0316 µM
# [6] = second compound 0.1 µM, first compound 0.1 µM
# [7] = second compound 0.1 µM, first compound 0.316 µM
# [8] = second compound 0.1 µM, first compound 1 µM
# [9] = second compound 0.316 µM, first compound 0.0316 µM
# [10] = second compound 0.316 µM, first compound 0.1 µM
# [11] = second compound 0.316 µM, first compound 0.316 µM
# [12] = second compound 0.316 µM, first compound 1 µM
# [13] = second compound 1 µM, first compound 0.0316 µM
# [14] = second compound 1 µM, first compound 0.1 µM
# [15] = second compound 1 µM, first compound 0.316 µM
# [16] = second compound 1 µM, first compound 1 µM
# [17] = second compound 3.16 µM, first compound 0.0316 µM
# [18] = second compound 3.16 µM, first compound 0.1 µM
# [19] = second compound 3.16 µM, first compound 0.316 µM
# [20] = second compound 3.16 µM, first compound 1 µM
# [21] = second compound 10 µM, first compound 0.0316 µM
# [22] = second compound 10 µM, first compound 0.1 µM
# [23] = second compound 10 µM, first compound 0.316 µM
# [24] = second compound 10 µM, first compound 1 µM
# 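Further: spheroids exposed to the agents for one week.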
# 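Wherever viability, T/C is given: 100% = DMSO vehicle control wells.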
structure (smiles),measurement,setting,value
CCc1c2c(nc3ccc(O)cc13)-c1cc3c(c(=O)n1C2)COC(=O)[C@]3(O)CC + Cc1cccc(N(C)C(=O)C2C(O)CCN2c2nc(C)cc(C(F)(F)F)c2C#N)c1,IC50,second compound 0.0316 µM,11.6 nM
same,IC50,second compound 0.1 µM,14.3 nM
same,IC50,second compound 0.316 µM,14.2 nM
same,IC50,second compound 1 µM,17 nM
same,IC50,second compound 3.16 µM,13 nM
same,IC50,second compound 10 µM,6.84 nM
same,"viability, T/C","second compound 0.0316 µM, first compound 0.00316 µM",89.5%
same,"viability, T/C","second compound 0.0316 µM, first compound 0.01 µM",55%
same,"viability, T/C",[1],15.1%
same,"viability, T/C",[2],12.8%
same,"viability, T/C",[3],12.9%
same,"viability, T/C",[4],15%
same,"viability, T/C","second compound 0.1 µM, first compound 0.00316 µM",91.8%
same,"viability, T/C","second compound 0.1 µM, first compound 0.01 µM",63.5%
same,"viability, T/C",[5],20.2%
same,"viability, T/C",[6],11.3%
same,"viability, T/C",[7],12.8%
same,"viability, T/C",[8],16.3%
same,"viability, T/C","second compound 0.316 µM, first compound 0.00316 µM",100%
same,"viability, T/C","second compound 0.316 µM, first compound 0.01 µM",63.4%
same,"viability, T/C",[9],19.7%
same,"viability, T/C",[10],11.9%
same,"viability, T/C",[11],12.4%
same,"viability, T/C",[12],17.1%
same,"viability, T/C","second compound 1 µM, first compound 0.00316 µM",100%
same,"viability, T/C","second compound 1 µM, first compound 0.01 µM",72.8%
same,"viability, T/C",[13],23.5%
same,"viability, T/C",[14],10.3%
same,"viability, T/C",[15],12.4%
same,"viability, T/C",[16],15.3%
same,"viability, T/C","second compound 3.16 µM, first compound 0.00316 µM",90.9%
same,"viability, T/C","second compound 3.16 µM, first compound 0.01 µM",58.3%
same,"viability, T/C",[17],21.7%
same,"viability, T/C",[18],9.8%
same,"viability, T/C",[19],12.3%
same,"viability, T/C",[20],17.4%
same,"viability, T/C","second compound 10 µM, first compound 0.00316 µM",82.3%
same,"viability, T/C","second compound 10 µM, first compound 0.01 µM",34.1%
same,"viability, T/C",[21],10.5%
same,"viability, T/C",[22],10%
same,"viability, T/C",[23],13.9%
same,"viability, T/C",[24],17.7%
C=CC(=O)N1CCN(c2nc(=O)n(-c3c(C)ccnc3C(C)C)c3nc(-c4c(O)cccc4F)c(F)cc23)C(C)C1 (centres undefined) + COC1C(OC(N)=O)C(O)C(Oc2ccc3c(O)c(NC(=O)c4ccc(O)c(CC=C(C)C)c4)c(=O)oc3c2C)OC1(C)C,IC50,second compound 0.0316 µM,> 10000 nM
same,IC50,second compound 0.1 µM,> 10000 nM
same,IC50,second compound 0.316 µM,> 10000 nM
same,IC50,second compound 1 µM,> 10000 nM
same,IC50,second compound 3.16 µM,> 10000 nM
same,IC50,second compound 10 µM,> 10000 nM
same,"viability, T/C",[1],102%
same,"viability, T/C",[2],94.8%
same,"viability, T/C",[3],98.9%
same,"viability, T/C",[4],101%
same,"viability, T/C","second compound 0.0316 µM, first compound 3.16 µM",92.8%
same,"viability, T/C","second compound 0.0316 µM, first compound 10 µM",84.1%
same,"viability, T/C",[5],98.9%
same,"viability, T/C",[6],107%
same,"viability, T/C",[7],93.3%
same,"viability, T/C",[8],91.4%
same,"viability, T/C","second compound 0.1 µM, first compound 3.16 µM",88.3%
same,"viability, T/C","second compound 0.1 µM, first compound 10 µM",97.6%
same,"viability, T/C",[9],102%
same,"viability, T/C",[10],101%
same,"viability, T/C",[11],103%
same,"viability, T/C",[12],96.5%
same,"viability, T/C","second compound 0.316 µM, first compound 3.16 µM",96.2%
same,"viability, T/C","second compound 0.316 µM, first compound 10 µM",99.6%
same,"viability, T/C",[13],101%
same,"viability, T/C",[14],97.5%
same,"viability, T/C",[15],97.4%
same,"viability, T/C",[16],98.6%
same,"viability, T/C","second compound 1 µM, first compound 3.16 µM",93%
same,"viability, T/C","second compound 1 µM, first compound 10 µM",104%
same,"viability, T/C",[17],102%
same,"viability, T/C",[18],94.2%
same,"viability, T/C",[19],95.9%
same,"viability, T/C",[20],92%
same,"viability, T/C","second compound 3.16 µM, first compound 3.16 µM",97.4%
same,"viability, T/C","second compound 3.16 µM, first compound 10 µM",101%
same,"viability, T/C",[21],85.8%
same,"viability, T/C",[22],88.4%
same,"viability, T/C",[23],89.8%
same,"viability, T/C",[24],85.9%
same,"viability, T/C","second compound 10 µM, first compound 3.16 µM",88.3%
same,"viability, T/C","second compound 10 µM, first compound 10 µM",85%
